Assays:
[1] = test system: human cervical cancer cell line (HeLa); assay: Determination of IC50 in cancer cell lines (cell counting, trypan blue), HeLa; format: cell-based; conditions: 24 h with compound (1-40 nM), inhibition of cell proliferation, read-out: IC50 against He La cells
Procedure: (§1) Then the medium was replaced with fresh medium containing vehicle (0.1% DMSO) or different concentrations of compounds (1-40 nM) and the cells were grown for an additional 24 h. Both attached and floating cells were harvested and counted after staining with trypan blue (Rathinasamy et al, BMC Cancer 2010; 10:213). Percentage inhibition of cell proliferation was plotted against compound concentration using Origin Pro 7.5 software (Table 2).

MDA-MB-231 cells = assay: Determination of IC50 in cancer cell lines (cell counting, trypan blue), MDA-MB-231; format: cell-based, human; conditions: MDA-MB-231 (highly metastatic breast cancer)
Procedure: as §1

MCF-7 cells = assay: Determination of IC50 in cancer cell lines (cell counting, trypan blue), MCF-7; format: cell-based, human; conditions: MCF-7 (breast cancer)
Procedure: as §1

HeLa cells [2] = assay: Apoptosis by annexin V and propidium iodide staining; format: cell-based, human; conditions: HeLa, 7, 15, 30 nM, 24 h
Procedure: (§2) After 40 h of incubation, cells were trypsinized and collected by centrifugation. After washing pellet twice in PBS, the cells were lysed in buffer (50 mM Tris pH 8.0, 10 mM EDTA, 0.5% sarcosine, and 0.5 mg/mL proteinase K), and incubated at 50° C. for 1 h in the heating block. RNase A (1 mg/mL) was added and incubation was further extended for 1 h. The samples were allowed to come to 25° C. Gel electrophoresis was done using 2% agarose and the fragmented genomic DNA visualized after staining with ethidium bromide using UV gel documentation system (FIG. 2) (Rathinasamy et al, FEBS J 2006; 273:4114). HeLa cells were incubated with different concentrations of compound 5 (7, 15 and 30 nM) for 24 h. Cells were stained with annexin V and propidium iodide. The number of cells undergoing apoptosis was estimated by counting the annexin V and propidium iodide positive cells (FIG. 13).

HeLa cells [3] = assay: Apoptosis detection by DNA fragmentation assay; format: cell-based, human; conditions: HeLa, 7, 15, 30 nM, 40 h
Procedure: as §2

Goat brain tubulin = assay: Microtubule polymerization assay (light scattering); format: biochemical; conditions: tubulin 10 μM, 30 min, compared with compounds 1, 2, 3
Procedure: Microtubule polymerization assay: Goat brain tubulin (10 μM) was incubated without or with different compounds 1, 2, 3 and compound 5 (5 μM) in microtubule assembly buffer (1 M monosodium glutamate, 3 mM MgCl2, 1 mM EGTA and 25 mM PIPES pH 6.8) on ice for 20 minutes. Then, GTP (1 mM) was added to the reaction mixture. The assembly of tubulin was monitored at 37° C. using a spectrofluorometer for 30 min. Similar experiment was done with compound 5 (1, 5, 7 and 10 μM). MAPs-rich tubulin (1 mg/mL) was incubated without or with different concentrations of compound 5 (1, 3, 5 and 10 μM) in PEM buffer (25 mM pipes pH 6.8 containing 3 mM MgCl2 and 1mM EGTA) for 15 min on ice and then, 1 mM GTP was added to the reaction mixture. The effect of D1, D2, D3 and D5 on the assembly kinetics was monitored as described above for purified tubulin (FIG. 3) (Gupta and Panda, Biochemistry 2002; 41:13029) to study depolymerization of microtubules which is a mechanism of anticancer activity.

[4] = test system: microtubules of HeLa cells; assay: Effect on interphase and mitotic microtubules of HeLa cells (immunostaining); format: cell-based, human
Procedure: Effect of Compound 5 on interphase and mitotic microtubules of HeLa cells: HeLa cells were seeded at a density of 0.6×10^5 cells/mL and were grown as monolayer on glass cover slips. Compounds diluted in Dimethyl sulfoxide (DMSO) (0.1% final concentration) were added to the culture medium 24 h after seeding. Then, the medium was replaced with fresh medium containing vehicle (0.1% DMSO) or different concentrations (7, 15, 30 nM) of compound 5 and the incubation continued for further 24 h. The cells were then fixed with 3.7% formaldehyde at 37° C. for 30 min and immunostained using tubulin antibody (FIGS. 4 and 5) (Mohan R and Panda D, Cancer Res. 2008, 68: 6181). The DNA was stained using Hoechst 33258 dye. The images were visualized by TE Eclipse 2000U fluorescence microscope (Nikon, Tokyo, Japan) and analyzed with Image-Pro Plus software.

[5] = test system: solid tumors and soft tissue sarcomas; conditions: cited from earlier work
[6] = in vivo; cited from earlier work

Work on `CC[C@H](C)C(/C=C/C(=O)NCC1O[C@@H](C(=O)N[C@@H](Cc2ccccc2)C2=NCCS2)[C@@H](OC)[C@@H]1OC)N(C)C(=O)[C@@H](NC(=O)[C@@H](NC)C(C)C)C(C)C` (stereo partly drawn) [Compound 1, Dov(R^1═H)-Val-(4S,5S)-Dil(X,Y═CH)-SAA(2R)-Doe(R^2=2-(4,5-dihydrothiazolyl), n=1)] yielded an IC50 [1] of 8.7 nM.
In the case of `CC[C@H](C)C(/C=C/C(=O)NCC1O[C@@H](C(=O)N[C@@H](Cc2ccccc2)C2=NCCS2)[C@@H](OC)[C@@H]1OC)N(C)C(=O)[C@@H](NC(=O)[C@H](C(C)C)N(C)C)C(C)C` (stereo partly drawn) [Compound 2, Dov(R^1=Me)-Val-(4S,5S)-Dil(X,Y═CH)-SAA(2R)-Doe(R^2=2-(4,5-dihydrothiazolyl), n=1)], the IC50 [1] is reported as 8.8 nM.
With `CC[C@H](C)C([C@H](CC(=O)NCC1O[C@H](C(=O)N[C@@H](Cc2ccccc2)c2nccs2)[C@@H](OC)[C@@H]1OC)OC)N(C)C(=O)[C@@H](NC(=O)[C@@H](NC)C(C)C)C(C)C` (stereo partly drawn) [Compound 3, Dov(R^1═H)-Val-(3S,4S,5S)-Dil(X═C(OCH3)H,Y═CH2)-SAA(2S)-Doe(R^2=2-(thiazolyl), n=1)] the IC50 [1] was 9.9 nM.
For `CC[C@H](C)C([C@H](CC(=O)NCC1O[C@H](C(=O)N[C@@H](Cc2ccccc2)c2nccs2)[C@@H](OC)[C@@H]1OC)OC)N(C)C(=O)[C@@H](NC(=O)[C@H](C(C)C)N(C)C)C(C)C` (stereo partly drawn) [Compound 4, Dov(R^1=Me)-Val-(3S,4S,5S)-Dil(X═C(OCH3)H,Y═CH2)-SAA(2S)-Doe(R^2=2-(thiazolyl), n=1)], the IC50 [1] was 16 nM.
For `CC[C@H](C)C([C@@H](CC(=O)NCC1O[C@H](C(=O)NCCc2ccccc2)[C@@H](OC)[C@@H]1OC)OC)N(C)C(=O)[C@@H](NC(=O)[C@@H](NC)C(C)C)C(C)C` (stereo partly drawn) [Compound 5, Dov(R^1═H)-Val-(3R,4S,5S)-Dil(X═C(OCH3)H,Y═CH2)-SAA(2S)-Doe(R^2═H, n=1)], the IC50 [1] was 6.8 nM, the “inhibition of proliferation of MDA-MB-231 cells (in words)” value (MDA-MB-231 cells) was “inhibited proliferation” and the IC50 (MDA-MB-231 cells; 24 h, read-out: IC50 values for compound 5, MDA-MB-231 cells) was 13 ± 5 nM. The “inhibition of proliferation of MCF-7 cells (in words)” value (MCF-7 cells) was “inhibited proliferation”, the IC50 (MCF-7 cells; 24 h, read-out: IC50 values for compound 5, MCF-7 cells) was 15 ± 7 nM and the “induction of apoptosis (Annexin V and PI staining, in words)” value (HeLa cells [2]) was “induced apoptosis”. The “genomic DNA fragmentation (in words)” value (HeLa cells [3]) was “DNA fragmentation”, the “genomic DNA fragmentation (in words)” value (HeLa cells [3]; listed as D5) was “caused genomic DNA fragmentation” and the “effect on assembly of purified tubulin, relative potency (in words)” value (Goat brain tubulin) was “maximum potency”. The “effect on interphase microtubules of HeLa cells (in words)” value ([4]; 7, 15, 30 nM, 24 h) was “perturbed microtubule network”, the “effect on mitotic microtubules of HeLa cells (in words)” value ([4]; 7, 15, 30 nM, 24 h) was “perturbed microtubule network” and the “depolymerization of interphase and mitotic microtubules (in words)” value ([4]; at 15 to 30 nM) was “showed depolymerization of interphase and mitotic microtubules”.
Work on `CC[C@H](C)C([C@@H](CC(=O)NCC1O[C@@H](C(=O)NCCc2ccccc2)[C@@H](OC)[C@@H]1OC)OC)N(C)C(=O)[C@@H](NC(=O)[C@@H](NC)C(C)C)C(C)C` (stereo partly drawn) [Compound 6, Dov(R^1═H)-Val-(3R,4S,5S)-Dil(X═C(OCH3)H,Y═CH2)-SAA(2R)-Doe(R^2═H, n=1)] yielded an IC50 [1] of 15 nM.
Work on `CC[C@H](C)C([C@H](O)CC(=O)NCC1O[C@@H](C(=O)NCc2ccccc2)[C@@H](OC)[C@@H]1OC)N(C)C(=O)[C@@H](NC(=O)[C@@H](NC)C(C)C)C(C)C` (stereo partly drawn) [Compound 7, Dov(R^1═H)-Val-(3R,4S,5S)-Dil(X═C(OH)H,Y═CH2)-SAA(2R)-Doe(R^2═H, n=0)] yielded an IC50 [1] of 16 nM.
Work on `CC[C@H](C)C([C@H](O)CC(=O)NCC1O[C@H](C(=O)NCc2ccccc2)[C@@H](OC)[C@@H]1OC)N(C)C(=O)[C@@H](NC(=O)[C@@H](NC)C(C)C)C(C)C` (stereo partly drawn) [Compound 8, Dov(R^1═H)-Val-(3R,4S,5S)-Dil(X═C(OH)H,Y═CH2)-SAA(2S)-Doe(R^2═H, n=0)] yielded an IC50 [1] of 12 nM.
For Dolastatin-10, the “responses in phase I and II clinical trials (in words)” value ([5]; variety of solid tumors and soft tissue sarcomas, Von Mehren et al 2004) is listed as “did not demonstrate any responses”.
For Dolastatin-15, the “side effects (in words)” value [6] is listed as “severe side effects such as arterial hypertension and myocardial infarction”.
In the case of TZT-1027, the “activity in Phase II trials (in words)” value ([5]; Phase II, Patel et al 2006) is listed as “no activity”.

— US20160168195A1, “OLIGOPEPTIDES AND PROCESS FOR PREPARATION THEREOF” (Council of Scientific & Industrial Research, priority 2011, published 2016)
